SMILES strings stand for the structures.

Turning to `CCOC(=O)Nc1ccc2nn(C3CCCC3)nc2c1`, the logP turned out to be 3.43.

In turn, `Cc1ccc(S(=O)(=O)Nc2ccc3nn(C4CCCC4)nc3c2)cc1` displayed a logP of 3.91.

`O=[N+]([O-])c1ccc(S(=O)(=O)Nc2ccc3nn(C4CCCC4)nc3c2)cc1` yielded a logP of 3.82.

For `CC(C)(C)C(=O)Nc1ccc2nn(C3CCCC3)nc2c1`, the logP worked out at 3.4.

`CS(=O)(=O)Nc1ccc2nn(C3CCCC3)nc2c1`: the logP was found to be 2.44.

Compound `O=C(Nc1ccc2nn(C3CCCC3)nc2c1)C(Cl)(Cl)Cl` registered a logP of 4.12.

With `O=C(Nc1ccc2nn(C3CCCC3)nc2c1)c1ccc(Cl)c(Cl)c1`, the logP worked out at 5.32.

As for `CC(=O)Nc1ccc2nn(C3CCCC3)nc2c1`, the logP was 2.45.

Consider `CC(C)COC(=O)Nc1ccc2nn(C3CCCC3)nc2c1`, for which the logP amounted to 4.28.

As to `O=C(Nc1ccc2nn(C3CCCC3)nc2c1)c1ccc([N+](=O)[O-])cc1`, the logP is 3.75.

As for `COc1cc(C(=O)Nc2ccc3nn(C4CCCC4)nc3c2)cc(OC)c1OC`, the logP was determined as 3.87.

In the case of `O=C(Nc1ccc2nn(C3CCCC3)nc2c1)c1ccccc1`, the lipophilicity (logP) was 3.85.

With `O=C(Nc1ccc2nn(C3CCCC3)nc2c1)C(Cl)Cl`, the logP was 3.4.

`O=C(CCl)Nc1ccc2nn(C3CCCC3)nc2c1` returned a logP of 2.78.

Turning to `O=C(Nc1ccc2nn(C3CCCC3)nc2c1)c1ccc(C(F)(F)F)cc1`, the logP came to 4.95.

The compound `Nc1ccc(S(=O)(=O)Nc2ccc3nn(C4CCCC4)nc3c2)cc1` came in with a logP of 2.48.

The compound `O=C(Nc1ccc2nn(C3CCCC3)nc2c1)c1ccc(Cl)cc1` came in with a logP of 4.11.

Broadly, the logP is a log measure of how a compound divides between an organic and an aqueous phase. Low values mean lower lipophilicity, high ones higher lipophilicity.

The values above are taken from the OPERA property sets (Mansouri et al. 2018).
